Results reported in the NIST ThermoML archive (doi:10.1016/j.jct.2013.05.022).
± gives the expanded uncertainty stated by the source.

Assay: Boiling temperature at pressure P
Details: Liquid, Ebulliometric method (Recirculating still)

Structure (SMILES) | Boiling temperature at pressure P (13.33 kPa) [°C] | Boiling temperature at pressure P (20 kPa) [°C] | Boiling temperature at pressure P (26.66 kPa) [°C] | Boiling temperature at pressure P (33.33 kPa) [°C] | Boiling temperature at pressure P (40 kPa) [°C] | Boiling temperature at pressure P (53.33 kPa) [°C] | Boiling temperature at pressure P (66.66 kPa) [°C] | Boiling temperature at pressure P (79.99 kPa) [°C] | Boiling temperature at pressure P (93.33 kPa) [°C] | Boiling temperature at pressure P (98.12 kPa) [°C] | Boiling temperature at pressure P (101.33 kPa) [°C]
C=CC(C)(O)CCC=C(C)C (centres undefined) [3,7-dimethyl-1,6-octadien-3-ol] | 133.2 ± 0.9 | 143.7 ± 0.9 | 152.1 ± 0.9 | 159 ± 0.8 | 164.7 ± 0.8 | 174.1 ± 0.8 | 182 ± 0.8 | 188.5 ± 0.8 | – | – | –
CCO [ethanol] | 35.7 ± 0.9 | 43.1 ± 0.8 | 48.5 ± 0.8 | 53 ± 0.8 | 57 ± 0.8 | 63.1 ± 0.8 | 68.2 ± 0.8 | 72.5 ± 0.8 | 76.2 ± 0.8 | 77.7 ± 0.8 | 78.2 ± 0.8
